In ChEMBL document CHEMBL4828715, “Discovery, Structure-Activity Relationships, and In Vivo Evaluation of Novel Aryl Amides as Brain Penetrant Adaptor Protein 2-Associated Kinase 1 (AAK1) Inhibitors for the Treatment of Neuropathic Pain” (J Med Chem, 2021):
In brackets after ≈: the same amount, converted by molar mass. Activity calls are given as the source filed them. The calls are words filed in the database; no cut-off is given here.

Tests used:
[1] = Permeability of the compound across basolateral to apical membrane in human Caco-2 cells incubated for 2 hrs by LC-MS/MS analysis; format: ADME, cell-based; settings: caco-2, 2 h
[2] = biological target: AP2-associated protein kinase 1 (Homo sapiens, UniProt Q2M2I8); assay: Inhibition of recombinant GST-Xa-tagged human AAK1 (30 to 330 residues) using 5-FAM-labelled Alla-KEEQSQITSQVTGQIGWR-NH2 peptide as substrate incubated for 3 hrs in presence of ATP by electrophoretic analysis
Chain of AP2-associated protein kinase 1 (Homo sapiens, UniProt Q2M2I8) (Q2M2I8 whole entry, the tested form may be a part): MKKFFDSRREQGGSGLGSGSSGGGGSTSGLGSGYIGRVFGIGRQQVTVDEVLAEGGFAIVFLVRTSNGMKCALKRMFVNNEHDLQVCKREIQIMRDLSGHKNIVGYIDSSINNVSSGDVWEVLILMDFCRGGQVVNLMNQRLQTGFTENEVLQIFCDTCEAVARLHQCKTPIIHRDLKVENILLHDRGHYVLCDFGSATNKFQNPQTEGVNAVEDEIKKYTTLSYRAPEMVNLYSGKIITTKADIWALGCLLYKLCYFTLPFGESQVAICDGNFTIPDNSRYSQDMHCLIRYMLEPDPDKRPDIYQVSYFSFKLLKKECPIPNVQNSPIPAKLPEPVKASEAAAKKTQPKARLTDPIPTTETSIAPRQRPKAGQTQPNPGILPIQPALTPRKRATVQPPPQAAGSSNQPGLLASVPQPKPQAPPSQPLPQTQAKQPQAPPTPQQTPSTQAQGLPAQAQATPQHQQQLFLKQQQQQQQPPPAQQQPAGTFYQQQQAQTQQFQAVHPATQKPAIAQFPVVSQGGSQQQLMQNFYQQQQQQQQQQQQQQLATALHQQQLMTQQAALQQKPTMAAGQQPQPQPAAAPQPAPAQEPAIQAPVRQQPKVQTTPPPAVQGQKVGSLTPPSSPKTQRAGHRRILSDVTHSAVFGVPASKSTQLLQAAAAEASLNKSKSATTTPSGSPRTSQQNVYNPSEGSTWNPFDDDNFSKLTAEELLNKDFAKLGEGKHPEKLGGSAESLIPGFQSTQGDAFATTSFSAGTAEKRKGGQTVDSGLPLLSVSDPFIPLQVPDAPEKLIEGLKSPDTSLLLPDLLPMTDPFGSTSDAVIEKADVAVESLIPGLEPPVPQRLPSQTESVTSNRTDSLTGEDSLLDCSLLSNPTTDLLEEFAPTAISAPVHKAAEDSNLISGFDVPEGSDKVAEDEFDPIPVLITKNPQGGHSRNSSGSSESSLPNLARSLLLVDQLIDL

[3] = Metabolic stability in mouse liver microsomes assessed as parent compound remaining at 0.5 uM incubated for 10 mins in presence of NADPH by LC-MS/MS analysis; format: ADME, Microsome; settings: read-out: Stability
[4] = Permeability of the compound at pH 7.4 incubated for 4 hrs by PAMPA-based UV spectrophotometry; format: ADME; settings: PAMPA, pH 7.4, read-out: permeability
[5] = Protein binding in human plasma assessed as unbound fraction at 10 uM measured after 5 hrs by equilibrium dialysis method
[6] = Protein binding in mouse plasma assessed as unbound fraction at 10 uM measured after 5 hrs by equilibrium dialysis method
[7] = Drug concentration in C57BL6 mouse brain at 10 ml/kg, sc measured after 2 hrs by LC-MS/MS analysis; format: ADME, organism-based; settings: read-out: Ct
[8] = Ratio of drug concentration in brain to plasma in C57BL6 mouse at 30 mg/kg, sc; format: ADME, organism-based; settings: read-out: BPR
[9] = Unbound brain-to-plasma concentration ratio in C57BL6 mouse at 30 mg/kg, sc; format: ADME, organism-based; settings: read-out: K(p,uu,brain)
[10] = Aqueous solubility of the compound at pH 7.4; format: physicochemical
[11] = biological target: T1, BMP-2-inducible protein kinase (Homo sapiens, UniProt Q9NSY1); assay: Inhibition of wild-type human partial length BIKE (S34 to N329 residues) expressed in bacterial expression system assessed as residual binding level at 1 uM by Kinomescan method relative to control
[12] = biological target: Citron Rho-interacting kinase (Homo sapiens, UniProt O14578); assay: Inhibition of CRIK (unknown origin) assessed as residual binding level at 1 uM by Kinomescan method relative to control
[13] = biological target: MAP kinase-interacting serine/threonine-protein kinase 1 (Homo sapiens, UniProt Q9BUB5); assay: Inhibition of wild-type human full length MKNK1 (M1 to L424 residues) expressed in mammalian expression system assessed as residual binding level at 1 uM by Kinomescan method relative to control
Chain of MAP kinase-interacting serine/threonine-protein kinase 1 (Q9BUB5 whole entry, looked up, the tested form may be a part): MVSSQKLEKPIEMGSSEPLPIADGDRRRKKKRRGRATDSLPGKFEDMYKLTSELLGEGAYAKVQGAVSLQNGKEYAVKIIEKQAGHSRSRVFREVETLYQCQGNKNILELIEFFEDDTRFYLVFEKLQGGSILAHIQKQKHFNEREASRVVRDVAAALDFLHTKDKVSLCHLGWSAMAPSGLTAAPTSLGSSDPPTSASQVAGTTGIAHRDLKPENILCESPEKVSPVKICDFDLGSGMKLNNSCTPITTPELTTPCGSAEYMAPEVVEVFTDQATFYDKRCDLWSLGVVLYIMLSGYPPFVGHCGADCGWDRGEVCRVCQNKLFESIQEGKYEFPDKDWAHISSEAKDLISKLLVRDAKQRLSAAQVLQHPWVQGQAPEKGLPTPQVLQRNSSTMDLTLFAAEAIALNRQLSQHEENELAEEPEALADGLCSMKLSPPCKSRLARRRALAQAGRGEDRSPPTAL

[14] = biological target: SRSF protein kinase 3 (Homo sapiens) (UniProt Q9UPE1); assay: Inhibition of wild-type human partial length SRPK3 (P41 to P567 residues) expressed in bacterial expression system assessed as residual binding level at 1 uM by Kinomescan method relative to control
Chain of SRSF protein kinase 3 (Homo sapiens) (Q9UPE1 whole entry, the tested form may be a part): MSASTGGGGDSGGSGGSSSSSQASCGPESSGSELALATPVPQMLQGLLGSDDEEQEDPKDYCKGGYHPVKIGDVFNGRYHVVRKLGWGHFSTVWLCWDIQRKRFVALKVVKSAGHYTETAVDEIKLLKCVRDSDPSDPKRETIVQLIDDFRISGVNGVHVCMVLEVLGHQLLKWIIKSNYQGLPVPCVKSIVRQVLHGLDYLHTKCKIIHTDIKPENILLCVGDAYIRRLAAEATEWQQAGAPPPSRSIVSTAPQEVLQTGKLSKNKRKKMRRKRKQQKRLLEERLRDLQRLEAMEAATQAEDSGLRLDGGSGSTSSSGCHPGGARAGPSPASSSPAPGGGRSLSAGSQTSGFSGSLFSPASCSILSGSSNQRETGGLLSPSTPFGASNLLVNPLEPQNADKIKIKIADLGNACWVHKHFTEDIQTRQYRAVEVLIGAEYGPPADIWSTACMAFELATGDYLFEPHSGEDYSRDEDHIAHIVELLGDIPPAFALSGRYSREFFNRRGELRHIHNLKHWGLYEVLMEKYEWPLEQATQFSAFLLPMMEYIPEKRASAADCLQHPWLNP

[15] = biological target: cAMP-dependent protein kinase catalytic subunit PRKX (Homo sapiens) (UniProt P51817); assay: Inhibition of wild-type human partial length PRKX (M1 to F358 residues) expressed in bacterial expression system assessed as residual binding level at 1 uM by Kinomescan method relative to control
[16] = biological target: Serine/threonine-protein kinase RIO1 (Homo sapiens) (UniProt Q9BRS2); assay: Inhibition of wild-type human full length RIOK1 (M1 to K568 residues) expressed in bacterial expression system assessed as residual binding level at 1 uM by Kinomescan method relative to control
[17] = biological target: SRSF protein kinase 1 (Homo sapiens) (UniProt Q96SB4); assay: Inhibition of wild-type human full length SRPK1 (M1 to S655 residues) expressed in bacterial expression system assessed as residual binding level at 1 uM by Kinomescan method relative to control
Chain of SRSF protein kinase 1 (Homo sapiens) (Q96SB4 whole entry, the tested form may be a part): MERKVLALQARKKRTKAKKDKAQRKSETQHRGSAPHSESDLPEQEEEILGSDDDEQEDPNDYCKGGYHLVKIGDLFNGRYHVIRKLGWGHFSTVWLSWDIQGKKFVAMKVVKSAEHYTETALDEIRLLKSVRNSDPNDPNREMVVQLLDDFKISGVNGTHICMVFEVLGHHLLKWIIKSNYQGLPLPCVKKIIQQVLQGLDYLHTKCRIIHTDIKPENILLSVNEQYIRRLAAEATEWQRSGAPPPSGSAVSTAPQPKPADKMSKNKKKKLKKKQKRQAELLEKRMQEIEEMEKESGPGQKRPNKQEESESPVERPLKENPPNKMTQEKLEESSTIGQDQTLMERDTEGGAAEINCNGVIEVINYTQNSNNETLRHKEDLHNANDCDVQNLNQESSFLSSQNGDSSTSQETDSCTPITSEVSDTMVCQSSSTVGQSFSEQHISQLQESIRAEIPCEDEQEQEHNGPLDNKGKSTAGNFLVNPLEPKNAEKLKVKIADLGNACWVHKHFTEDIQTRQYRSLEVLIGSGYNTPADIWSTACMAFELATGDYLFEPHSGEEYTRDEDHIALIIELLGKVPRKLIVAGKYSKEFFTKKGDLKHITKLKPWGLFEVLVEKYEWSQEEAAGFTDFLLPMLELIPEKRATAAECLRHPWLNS

[18] = biological target: T1, BMP-2-inducible protein kinase; assay: Inhibition of wild-type human partial length BIKE (S34 to N329 residues) expressed in bacterial expression system by Kinomescan method
[19] = biological target: cAMP-dependent protein kinase catalytic subunit PRKX (Homo sapiens, UniProt P51817); assay: Inhibition of wild-type human partial length PRKX (M1 to F358 residues) expressed in bacterial expression system by Kinomescan method
[20] = biological target: Alpha-2C adrenergic receptor (Homo sapiens, UniProt P18825); assay: Inhibition of alpha 2C adrenergic receptor (unknown origin)
Chain of Alpha-2C adrenergic receptor (P18825 whole entry): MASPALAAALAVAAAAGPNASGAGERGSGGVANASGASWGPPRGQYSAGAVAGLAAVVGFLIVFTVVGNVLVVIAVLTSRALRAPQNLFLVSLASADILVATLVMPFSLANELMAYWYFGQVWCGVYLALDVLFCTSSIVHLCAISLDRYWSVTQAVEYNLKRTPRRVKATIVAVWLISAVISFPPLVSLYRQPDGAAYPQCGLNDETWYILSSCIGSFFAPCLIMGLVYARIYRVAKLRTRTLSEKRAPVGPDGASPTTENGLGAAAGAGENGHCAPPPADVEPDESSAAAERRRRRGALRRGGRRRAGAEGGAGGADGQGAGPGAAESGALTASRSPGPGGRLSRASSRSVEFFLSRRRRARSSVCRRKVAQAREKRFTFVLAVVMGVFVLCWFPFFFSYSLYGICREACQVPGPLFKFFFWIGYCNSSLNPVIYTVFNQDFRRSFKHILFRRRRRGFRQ

[21] = biological target: Sodium-dependent noradrenaline transporter (Homo sapiens, UniProt P23975); assay: Inhibition of NET (unknown origin)
[22] = biological target: AP2-associated protein kinase 1 (Mus musculus) (UniProt Q3UHJ0); assay: In vivo inhibition of AAK1 in C57BL6 mouse assessed as suppression of mu2 phosphorylation in brain lysate at 60 mg/kg, sc measured after 1 hr by Western blot analysis relative to control; format: functional, organism-based
Chain of AP2-associated protein kinase 1 (Mus musculus) (Q3UHJ0 whole entry, looked up): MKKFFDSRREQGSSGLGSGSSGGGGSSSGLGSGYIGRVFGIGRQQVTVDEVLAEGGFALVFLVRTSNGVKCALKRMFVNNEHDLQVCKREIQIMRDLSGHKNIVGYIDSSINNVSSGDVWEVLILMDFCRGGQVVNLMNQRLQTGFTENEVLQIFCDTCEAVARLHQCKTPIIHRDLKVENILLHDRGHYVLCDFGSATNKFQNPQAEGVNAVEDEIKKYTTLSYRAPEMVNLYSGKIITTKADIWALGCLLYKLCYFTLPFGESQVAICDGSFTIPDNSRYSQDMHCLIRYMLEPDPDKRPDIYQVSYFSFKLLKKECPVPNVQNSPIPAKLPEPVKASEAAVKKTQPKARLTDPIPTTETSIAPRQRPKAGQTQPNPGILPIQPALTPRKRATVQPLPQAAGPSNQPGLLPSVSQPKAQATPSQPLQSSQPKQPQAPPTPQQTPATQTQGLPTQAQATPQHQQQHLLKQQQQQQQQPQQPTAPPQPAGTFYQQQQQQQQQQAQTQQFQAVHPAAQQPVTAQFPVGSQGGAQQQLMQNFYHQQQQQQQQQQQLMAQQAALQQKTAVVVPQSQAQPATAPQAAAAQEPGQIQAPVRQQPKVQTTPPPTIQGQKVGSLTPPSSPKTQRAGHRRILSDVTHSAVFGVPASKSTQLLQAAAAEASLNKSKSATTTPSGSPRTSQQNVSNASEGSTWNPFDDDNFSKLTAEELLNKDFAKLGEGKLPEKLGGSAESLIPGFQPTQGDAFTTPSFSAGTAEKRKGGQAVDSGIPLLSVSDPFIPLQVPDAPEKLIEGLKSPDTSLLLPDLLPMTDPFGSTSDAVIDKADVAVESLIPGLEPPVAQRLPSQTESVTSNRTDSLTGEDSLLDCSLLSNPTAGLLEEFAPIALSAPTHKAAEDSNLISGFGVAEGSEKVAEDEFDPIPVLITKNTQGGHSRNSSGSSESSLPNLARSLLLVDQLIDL

[23] = biological target: AP2-associated protein kinase 1 (Mus musculus) (UniProt Q3UHJ0); assay: In vivo inhibition of AAK1 in C57BL6 mouse assessed as suppression of mu2 phosphorylation in brain lysate at 30 mg/kg, sc measured after 30 mins by Western blot analysis relative to control; format: functional, organism-based
[24] = Drug concentration in plasma of C57BL6 mouse at 1 mg/kg, sc; format: ADME, organism-based; settings: in vivo
[25] = Drug concentration in plasma of C57BL6 mouse at 3 mg/kg, sc; format: ADME, organism-based; settings: in vivo
[26] = Drug concentration in plasma of C57BL6 mouse at 10 mg/kg, sc; format: ADME, organism-based; settings: in vivo
[27] = Drug concentration in plasma of C57BL6 mouse at 30 mg/kg, sc; format: ADME, organism-based; settings: in vivo
[28] = Drug concentration in plasma of C57BL6 mouse at 60 mg/kg, sc; format: ADME, organism-based; settings: in vivo
[29] = biological target: AP2-associated protein kinase 1 (Mus musculus, UniProt Q3UHJ0); assay: In vivo inhibition of AAK1 in C57BL6 mouse assessed as suppression of mu2 phosphorylation in brain lysate by Western blot analysis; format: functional, organism-based
Chain of AP2-associated protein kinase 1 (Mus musculus, UniProt Q3UHJ0) (Q3UHJ0 whole entry): as the sequence (Q3UHJ0 whole entry, looked up) above

[30] = system: Mus musculus; assay: Antinociceptive activity against formalin-induced nociceptive behavior in C57BL6 mouse assessed as reduction in phase 2 hind paw licking/biting at 30 mg/kg, sc administered 60 mins prior to formalin challenge by formalin test; format: functional, organism-based
[31] = system: Mus musculus; assay: Antinociceptive activity against formalin-induced nociceptive behavior in C57BL6 mouse assessed as reduction in time spent phase 1 hind paw licking/biting at 30 mg/kg, sc administered 60 mins prior to formalin challenge by formalin test; format: functional; settings: 1 h
[32] = Drug concentration in plasma of Sprague-Dawley rat model of chronic constriction injury-induced neuropathic pain at 1 mg/kg, sc; format: ADME, organism-based; settings: in vivo
[33] = Drug concentration in plasma of Sprague-Dawley rat model of chronic constriction injury-induced neuropathic pain at 10 mg/kg, sc; format: ADME, organism-based; settings: in vivo
[34] = Drug concentration in plasma of Sprague-Dawley rat model of chronic constriction injury-induced neuropathic pain at 30 mg/kg, sc; format: ADME, organism-based; settings: in vivo
[35] = Drug concentration in brain of Sprague-Dawley rat model of chronic constriction injury-induced neuropathic pain at 3 mg/kg, sc; format: ADME, organism-based; settings: in vivo, read-out: Ct
[36] = Unbound drug concentration in brain of Sprague-Dawley rat model of chronic constriction injury-induced neuropathic pain at 30 mg/kg, sc; format: ADME, organism-based; settings: in vivo
[37] = Drug concentration in Sprague-Dawley rat plasma at 10 mg/kg, sc measured after 190 mins; format: ADME, organism-based

CC(C)C[C@@H](N)C(=O)Nc1ccc(-c2cnco2)c(OC(F)F)c1
permeability [1]: 113 10^-6 cm/s | IC50 [2]: 12 nM | remaining at 10 min, 0.5 µM [3]: 46% | Papp at 4 h [4]: 96.7 ×10⁻⁶ cm/s | fraction unbound at 5 h, 10 µM [5]: 0.038 | fraction unbound at 5 h, 10 µM [6]: 0.041 | concentration at 2 h [7]: 18.5 µM | Kp [8]: 1.04 | Kp uu [9]: 0.71 | solubility [10]: 600 µg/mL (≈ 1770 µM) | Activity [11]: 6.2% | Activity [12]: 0.7% | Activity [13]: 8.4% | Activity [14]: 7.6% | Activity [15]: 19% | Activity [16]: 7.6% | Activity [17]: 12% | IC50 [18]: 120 nM | IC50 [19]: 326 nM | IC50 [20]: > 30000 nM | IC50 [21]: > 30000 nM | inhibition [22]: 90% | inhibition [23]: 62% | concentration [24]: 1.2 µM | concentration [25]: 2.6 µM | concentration [26]: 9.1 µM | concentration [27]: 37 µM | concentration [28]: 77 µM | EC50 [29]: 8300 nM | Activity [30]: Active | Time [31]: 18 s | concentration [32]: 0.4 µM | concentration [33]: 11 µM | concentration [34]: 52 µM | concentration [35]: 0.9 µM | Drug uptake(free) [36]: 0.92 µM | concentration at 3.167 h [37]: 7.4 µM
